Biological target: T1, Recombinant human CYP3A4 enzyme (Homo sapiens, UniProt P08684)
T1 construct: purchased BD company lot number 3100772
Assay: Evaluation of recombinant human CYP3A4 metabolism in vitro
Format: in vitro ADME
Conditions: for conversion rate relative to that of PA4102: recombinant human CYP3A4 enzyme in vitro, ratio to PA4102 (Table 4); for Elimination Rate in vitro: recombinant human CYP3A4 enzyme, test compound 100 nM, NADPH 2 mM, pH 7.4, samples at 1, 5, 10, 20, 30 min
Description: Example 12 Evaluation of Recombinant Human CYP3A4 Metabolism In Vitro
Recombinant human CYP3A4 enzyme was purchased from BD company, lot number 3100772.
Test compounds PA4101, PA4102, PA4103, PA4104, PA4105, PA4106, PA4107, PA4108, PA4109, PA4110 and PA4111 were synthesized by Zhejiang Palo Alto Pharmaceuticals, Inc., and dissolved in methanol (from Sinopharm Chemical Reagent Co., Ltd.) to prepare a storage solution of a concentration of 100 μM.
Enzymatic reaction was carried out in 100 mM KH2PO4 buffer solution (pH 7.4), the concentration of the test compounds was 100 nM, the concentration of human liver microsomes was 0.1 nmol/ml, and NADPH concentration was 2 mM. The reaction was initiated by NADPH finally added, and after reaction for 1, 5, 10, 20, 30 min in a constant-temperature shaking water bath kettle, samples were taken, and 1.5 times of volume of methanol was immediately added to terminate the reaction.
3) Sample Processing and Analysis Method
The centrifugation was carried out for 20 minutes at a maximum speed of 13,600 rpm using an Eppendorf tabletop centrifuge. Supernatant was taken, and after being blow-dried by a nitrogen blower, the supernatant was re-dissolved into a mobile phase A (0.1% formic acid v/v aqueous solution).
Analytical column: Waters, Acquity UPLC HSS T3 column • Flow rate: 0.5 ml/min • Column temperature: 45° C.
III Mass Spectrometry Condition
An ion source was an electrospray ionization source (Turbo Ionspray); a positive ion mode; a capillary voltage was 3.0 kV; a temperature was 500° C.; a desolventizing airflow was 1000 L/h; and scan time, cone voltage, collision energy and ion response for quantitative analysis are shown in the following table (Table 3): […]

T1 sequence (P08684 whole entry): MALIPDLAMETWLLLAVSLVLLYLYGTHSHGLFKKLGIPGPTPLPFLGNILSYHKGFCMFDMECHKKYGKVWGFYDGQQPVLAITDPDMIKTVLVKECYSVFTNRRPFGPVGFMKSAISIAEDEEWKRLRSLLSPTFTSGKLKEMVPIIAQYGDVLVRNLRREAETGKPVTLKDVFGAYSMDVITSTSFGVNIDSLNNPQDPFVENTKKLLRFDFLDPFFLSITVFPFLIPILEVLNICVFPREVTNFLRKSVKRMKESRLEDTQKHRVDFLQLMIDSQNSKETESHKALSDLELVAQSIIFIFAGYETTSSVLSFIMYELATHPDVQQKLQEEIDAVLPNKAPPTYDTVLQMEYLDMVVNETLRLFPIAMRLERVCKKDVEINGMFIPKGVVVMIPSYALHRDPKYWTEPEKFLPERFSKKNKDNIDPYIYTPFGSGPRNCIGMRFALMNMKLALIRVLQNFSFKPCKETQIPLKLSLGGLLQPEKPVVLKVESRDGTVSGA

Structure (SMILES): Nc1ccn([C@@H]2O[C@H](COP3(=O)OCC[C@H](c4cc(Cl)ccc4Cl)O3)[C@@H](O)[C@@H]2O)c(=O)n1 (some centres unmarked) [PA4109]
- conversion rate relative to that of PA4102: about 20.6 times
- Elimination Rate in vitro: 67.3 ml/min/gprot

Structure (SMILES): Nc1ccn([C@@H]2O[C@H](COP3(=O)OCC[C@H](c4cc(Cl)ccc4F)O3)[C@@H](O)[C@@H]2O)c(=O)n1 (some centres unmarked) [PA4101]
- conversion rate relative to that of PA4102: ~10.7 times
- Elimination Rate in vitro: 35.0 ml/min/gprot

Structure (SMILES): Nc1ccn([C@@H]2O[C@H](COP3(=O)OCC[C@H](c4cccc(Cl)c4F)O3)[C@@H](O)[C@@H]2O)c(=O)n1 (some centres unmarked) [PA4107]
- Elimination Rate in vitro: 8.28 ml/min/gprot

Structure (SMILES): Nc1ccn([C@@H]2O[C@H](COP3(=O)OCC[C@H](c4cc(F)cc(F)c4)O3)[C@@H](O)[C@@H]2O)c(=O)n1 (some centres unmarked) [PA4104]
- Elimination Rate in vitro: 2.93 ml/min/gprot

Structure (SMILES): Nc1ccn([C@@H]2O[C@H](COP3(=O)OCC[C@H](c4ccc(Cl)c(F)c4)O3)[C@@H](O)[C@@H]2O)c(=O)n1 (some centres unmarked) [PA4106]
- Elimination Rate in vitro: 14.9 ml/min/gprot

Structure (SMILES): Nc1ccn([C@@H]2O[C@H](COP3(=O)OCC[C@H](c4cc(F)ccc4F)O3)[C@@H](O)[C@@H]2O)c(=O)n1 (some centres unmarked) [PA4110]
- Elimination Rate in vitro: 8.37 ml/min/gprot

Structure (SMILES): Nc1ccn([C@@H]2O[C@H](COP3(=O)OCC[C@H](c4ccncc4)O3)[C@@H](O)[C@@H]2O)c(=O)n1 (some centres unmarked) [PA4102, reference compound]
- Elimination Rate in vitro: 3.26 ml/min/gprot

Structure (SMILES): Nc1ccn([C@@H]2O[C@H](COP3(=O)OCC[C@H](c4ccc(F)c(Cl)c4)O3)[C@@H](O)[C@@H]2O)c(=O)n1 (some centres unmarked) [PA4105]
- Elimination Rate in vitro: 5.79 ml/min/gprot

Structure (SMILES): Nc1ccn([C@@H]2O[C@H](COP3(=O)OCC[C@H](c4cc(F)ccc4Cl)O3)[C@@H](O)[C@@H]2O)c(=O)n1 (some centres unmarked) [PA4108]
- conversion rate relative to that of PA4102: ~7.24 times
- Elimination Rate in vitro: 23.6 ml/min/gprot

Structure (SMILES): Nc1ccn([C@@H]2O[C@H](COP3(=O)OCC[C@H](c4cc(Cl)cc(Cl)c4)O3)[C@@H](O)[C@@H]2O)c(=O)n1 (some centres unmarked) [PA4103]
- Elimination Rate in vitro: 23.1 ml/min/gprot

Structure (SMILES): Nc1ccn([C@@H]2O[C@H](COP3(=O)OCC[C@H](c4cccc(F)c4F)O3)[C@@H](O)[C@@H]2O)c(=O)n1 (some centres unmarked) [PA4111]
- Elimination Rate in vitro: 9.55 ml/min/gprot

Reference: patent publication US10899787B2, “Cytarabine prodrug nucleoside cyclic phosphate compound based on liverspecific delivery and use” (ZHEJIANG PALO ALTO PHARMACEUTICALS, INC., priority 2017, dated 2021)
